This note sets out measurements from paper PMC8900826, “Structural basis for substrate recognition in the Phytolacca americana glycosyltransferase PaGT3” (Acta Crystallographica. Section D, Structural Biology, 2022).

Common to all, as to assay: X-ray crystal structure, […] A
Assay type in all cases: binding

Assay [1] has as its target T1, PaGT3 (Phytolacca americana, UniProt B5MGN9).
T1 construct: full length; N-terminal His6 tag with TEV site, cut off (one Gly left before Met1); expressed in E. coli BL21 (DE3); two molecules in the asymmetric unit
The conditions noted are these: co-crystallized without acceptor; sugar-donor site; non-transferred donor analogue; also bound in 7vej and 7vek.

In assay [2] the target is T1, PaGT3. The following applies: soaked into PaGT3/UDP-2FGlc crystals; acceptor site, molecule B only, occupancy 0.8.
For assay [3], the target named is T1, PaGT3. The conditions noted are these: co-crystallized with UDP-2FGlc; acceptor site, both molecules, two different positions.

T1 sequence (B5MGN9 entry or part of it): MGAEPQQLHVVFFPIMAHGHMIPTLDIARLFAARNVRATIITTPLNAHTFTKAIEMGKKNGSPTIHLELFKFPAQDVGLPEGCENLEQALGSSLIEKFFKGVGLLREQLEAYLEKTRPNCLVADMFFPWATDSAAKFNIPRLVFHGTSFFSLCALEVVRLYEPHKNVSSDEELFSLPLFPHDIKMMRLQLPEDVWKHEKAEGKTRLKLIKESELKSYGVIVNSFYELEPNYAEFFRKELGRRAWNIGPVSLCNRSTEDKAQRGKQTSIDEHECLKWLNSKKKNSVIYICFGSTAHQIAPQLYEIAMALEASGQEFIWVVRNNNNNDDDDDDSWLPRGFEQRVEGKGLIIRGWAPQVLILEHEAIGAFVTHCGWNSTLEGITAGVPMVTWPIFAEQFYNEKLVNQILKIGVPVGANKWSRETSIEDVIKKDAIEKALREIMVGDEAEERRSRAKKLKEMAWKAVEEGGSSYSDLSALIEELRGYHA

Regarding `O=c1ccn([C@@H]2O[C@H](COP(=O)(O)OP(=O)(O)O[C@H]3O[C@H](CO)[C@@H](O)[C@H](O)[C@H]3F)[C@@H](O)[C@H]2O)c(=O)[nH]1` [UDP-2FGlc], on PaGT3 [1], the “X-ray crystal structure, 2.20 A” value is “The crystal structure of PaGT3 with the sugar-donor analogue UDP-2FGlc was determined”.

Turning to `COc1cc(CNC(=O)CCCC/C=C/C(C)C)ccc1O` [capsaicin], the “X-ray crystal structure, 2.60 A” value at PaGT3 [2] was “The calculated polder map confirms the occupancy of capsaicin in PaGT3 molecule B”.

Turning to `O=c1c(O)c(-c2ccc(O)cc2)oc2cc(O)cc(O)c12` [kaempferol], at PaGT3 [3], the “X-ray crystal structure, 1.85 A” value is on record as “The electron density of kaempferol in both molecules of the enzyme”.
